Test system: Rd 13 (DNA, aptamer) CGGGGGGAGGCGGAGGGAGGACTGGGGCTTCATTGACGTTCTTCACAGTAGGGGTAAGGGCTTAGGTGGTTGGTGCCTG
Assay: competitive fluorescence anisotropy
Conditions: 140 mM Na+, 2 mM K+, 5 mM Mg2+, 2 mM Ca2+; 20 mM Tris pH 7.4; PosBD displaced; 1,000 pmol drug in 125 μl; less than posaconazole

For `OC(Cn1cncn1)(Cn1cncn1)c1ccc(F)cc1F`, the binding was “weak”.
